The target of this data set is hemoglobin (Hb) (Homo sapiens, UniProt P68871+P69905). In words: Anti-degradation ability of produced nitric oxide in the presence of hemoglobin. The format is physicochemical. The settings on record: in the presence of hemoglobin compared to absence of hemoglobin. The text has this:
As mentioned above, the half-life of nitric oxide is quite short due to the reaction between nitric oxide and erythrocyte in plasma or ceruloplasmin. Please refer to FIG. 6A and FIG. 6B.
However, the half-life of nitric oxide, which is produced by using the temperature-responsive composition of the 1st embodiment in the present disclosure in the presence of hemoglobin, only has a degradation of 40% as shown in FIG. 6B. That is, it proves that applying the temperature-responsive composition of the present disclosure can extend the half-life of the produced nitric oxide.

Chain of hemoglobin (Hb) (P69905 2-142 limits assumed): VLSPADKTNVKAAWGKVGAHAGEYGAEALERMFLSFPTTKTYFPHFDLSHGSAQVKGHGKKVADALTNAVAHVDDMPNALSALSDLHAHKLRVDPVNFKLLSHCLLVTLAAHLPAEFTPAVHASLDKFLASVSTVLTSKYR
Chain of hemoglobin (Hb) (P68871 2-147 limits assumed): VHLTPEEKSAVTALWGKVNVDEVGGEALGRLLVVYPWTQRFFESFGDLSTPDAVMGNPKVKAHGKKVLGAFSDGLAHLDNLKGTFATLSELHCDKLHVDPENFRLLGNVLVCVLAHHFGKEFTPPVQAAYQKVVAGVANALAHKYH

For the compound `NCCN(CCN)/[N+]([O-])=N/O` [diethylenetriaine-NONOate], the “degradation of the half-life of the produced nitric oxide” value worked out at 85%.

The record behind these values is patent publication US20180161276A1, “TEMPERATURE-RESPONSIVE COMPOSITION, METHOD FOR FABRICATING, AND USE THEREOF” (NATIONAL TSING HUA UNIVERSITY, priority 2016, published 2018).
